SMILES strings stand for the structures.

In general, CC50 refers to the concentration that lowers cell viability or growth by half. Broadly, the melting point is the temperature, or range, at which the solid turns liquid.

A short description of the first data set: Cytotoxic assay (MTT, ISO 10993-5:2009(E)), 24 h treatment. It is filed as cell-based. The following applies: L929 mouse fibroblast cells, L929 mouse fibroblasts, values above highest tested concentration extrapolated. As to the method:
The L929 mouse fibroblast (ATTC® CCL-1™, Manassas, VA, USA) were culturing according to the ATCC product sheet. […] The cell viability assay were performed precisely according to international standards (ISO 10993-5:2009(E)), using the tetrazolium salt [3-(4,5-dimethylthiazol-2-yl)-2,5-diphenyltetrazolium bromide] (MTT, Sigma-Aldrich) and mouse fibroblasts L929 cells. Cells (1 × 10^4 per well) were treated 24 h with compounds or drug in different concentration range. The optical density at 570 nm on the ELISA reader (Multiskan EX, Labsystems, Vienna, VA, USA), was read. The results were expressed as a percentage of viability compared to untreated cells. […] The CC30/CC50 represents the concentration of tested compounds or drugs that was required for 30% or 50% cells proliferation inhibition in vitro. According to the previously mentioned ISO 10993-5:2009(E) norm, the CC30 value is recognized as non-cytotoxic concentration for the cell line. All experiments were performed in triplicate.
With `COC(=O)C=C1SC(=NN=Cc2cccc(O)c2)N(c2ccc(Cl)cc2)C1=O` [Compound 98, Methyl [3-(4-chlorophenyl)-2-{[(3-hydroxyphenyl)methylidene]hydrazinylidene}-4-oxo-1,3-thiazolidin-5-ylidene]acetate], the 50% cytotoxic concentration (CC50) at 24 h was 167 µM. Still for that read-out and setting: in the case of `O=C(O)CC1SC(=NN=Cc2ccc(O)c(Cl)c2)N(c2ccccc2)C1=O` (centres unmarked) [Compound 79, [2-{[(3-Chloro-4-hydroxyphenyl)methylidene]hydrazinylidene}-4-oxo-3-phenyl-1,3-thiazolidin-5-yl]acetic acid] it was ≥ 1000 µM. Same read-out and setting: to `O=C(O)CC1SC(=NN=Cc2ccc(O)c(Br)c2)N(c2ccccc2)C1=O` (centres unmarked) [Compound 80, [2-{[(3-Bromo-4-hydroxyphenyl)methylidene]hydrazinylidene}-4-oxo-3-phenyl-1,3-thiazolidin-5-yl]acetic acid] belongs ≥ 1000 µM.

As for `O=C1CSC(=NN=Cc2cccc(O)c2)N1c1cccc(Cl)c1` [Compound 53, 3-(3-Chlorophenyl)-2-{[(3-hydroxyphenyl)methylidene]hydrazinylidene}-1,3-thiazolidin-4-one], the 50% cytotoxic concentration (CC50) at 24 h was 113 µM.

In the case of `COc1cc(C=NN=C2SC(CC(=O)O)C(=O)N2c2ccccc2)ccc1O` (centres unmarked) [Compound 77, [2-{[(4-Hydroxy-3-methoxyphenyl)methylidene]hydrazinylidene}-4-oxo-3-phenyl-1,3-thiazolidin-5-yl]acetic acid], the CC50 at 24 h is ≥ 1000 µM. Same read-out and setting: in the case of `O=C1CSC(=NN=Cc2ccc(O)cc2)N1c1ccc(F)cc1` [Compound 69, 3-(4-Fluorophenyl)-2-{[(4-hydroxyphenyl)methylidene]hydrazinylidene}-1,3-thiazolidin-4-one] it was 386 µM; in that of `O=C1CSC(=NN=Cc2ccc(O)cc2)N1c1ccccc1` [Compound 43, 2-{[(4-Hydroxyphenyl)methylidene]hydrazinylidene}-3-phenyl-1,3-thiazolidin-4-one], 485 µM.

Test in another data set: not given
Conditions: not given
The molecule `COC(=O)C=C1SC(=NN=Cc2cccc(O)c2)N(c2ccc(Cl)cc2)C1=O` [Compound 98, Methyl [3-(4-chlorophenyl)-2-{[(3-hydroxyphenyl)methylidene]hydrazinylidene}-4-oxo-1,3-thiazolidin-5-ylidene]acetate] gave a melting point of 222 to 224 °C. With `CCOc1cc(C=NN=C2SCC(=O)N2c2ccccc2Cl)ccc1O` [Compound 51, 3-(2-Chlorophenyl)-2-{[(3-ethoxy-4-hydroxyphenyl)methylidene]hydrazinylidene}-1,3-thiazolidin-4-one], the melting point is 196 to 198 °C. In the case of `COc1cc(C=NN=C2SCC(=O)N2c2cccc(Cl)c2)ccc1O` [Compound 55, 3-(3-Chlorophenyl)-2-{[(4-hydroxy-3-methoxyphenyl)methylidene]hydrazinylidene}-1,3-thiazolidin-4-one], the melting point was in the range of 210 to 212 °C. Same read-out and setting: in the case of `O=C(O)CC1SC(=NN=Cc2ccc(O)c(Cl)c2)N(c2ccccc2)C1=O` (centres unmarked) [Compound 79, [2-{[(3-Chloro-4-hydroxyphenyl)methylidene]hydrazinylidene}-4-oxo-3-phenyl-1,3-thiazolidin-5-yl]acetic acid] it was 244 to 246 °C.

In turn, `O=C1CSC(=NN=Cc2ccc(O)c(Br)c2)N1c1ccccc1` [Compound 47, 2-{[(3-Bromo-4-hydroxyphenyl)methylidene]hydrazinylidene}-3-phenyl-1,3-thiazolidin-4-one] displayed a melting point of 216 to 218 °C. Molecule `O=C(O)CC1SC(=NN=Cc2ccc(O)c(Br)c2)N(c2ccccc2)C1=O` (centres unmarked) [Compound 80, [2-{[(3-Bromo-4-hydroxyphenyl)methylidene]hydrazinylidene}-4-oxo-3-phenyl-1,3-thiazolidin-5-yl]acetic acid] came in with a melting point of 252 to 254 °C. `O=C1CSC(=NN=Cc2ccc(O)c(Cl)c2)N1c1ccccc1` [Compound 46, 2-{[(3-Chloro-4-hydroxyphenyl)methylidene]hydrazinylidene}-3-phenyl-1,3-thiazolidin-4-one] yielded a melting point of 215 to 216 °C.

For the molecule `O=C1CSC(=NN=Cc2ccc(O)c(Cl)c2)N1c1ccc(F)cc1` [Compound 72, 2-{[(3-Chloro-4-hydroxyphenyl)methylidene]hydrazinylidene}-3-(4-fluorophenyl)-1,3-thiazolidin-4-one], the melting point lay within 222 to 224 °C. The same measure, in the same setting: in the case of `O=C1CSC(=NN=Cc2ccc(O)c(Cl)c2)N1c1ccc(Cl)cc1` [Compound 62, 2-{[(3-Chloro-4-hydroxyphenyl)methylidene]hydrazinylidene}-3-(4-chlorophenyl)-1,3-thiazolidin-4-one] it was 231 to 233 °C; in that of `CCOc1cc(C=NN=C2SCC(=O)N2c2cccc(Cl)c2)ccc1O` [Compound 56, 3-(3-Chlorophenyl)-2-{[(3-ethoxy-4-hydroxyphenyl)methylidene]hydrazinylidene}-1,3-thiazolidin-4-one], 214 to 216 °C; in that of `CCOc1cc(C=NN=C2SCC(=O)N2c2ccccc2)ccc1O` [Compound 45, 2-{[(3-Ethoxy-4-hydroxyphenyl)methylidene]hydrazinylidene}-3-phenyl-1,3-thiazolidin-4-one], 229 to 230 °C.

Consider `O=C1CSC(=NN=Cc2cccc(O)c2)N1c1cccc(Cl)c1` [Compound 53, 3-(3-Chlorophenyl)-2-{[(3-hydroxyphenyl)methylidene]hydrazinylidene}-1,3-thiazolidin-4-one], for which the melting point fell in the range of 198 to 200 °C.

The molecule `CCOc1cc(C=NN=C2SCC(=O)N2c2ccc(Cl)cc2)ccc1O` [Compound 61, 3-(4-Chlorophenyl)-2-{[(3-ethoxy-4-hydroxyphenyl)methylidene]hydrazinylidene}-1,3-thiazolidin-4-one] had a melting point of 218 to 220 °C. Regarding `COc1cc(C=NN=C2SCC(=O)N2c2ccc(Cl)cc2Cl)ccc1O` [Compound 64, 3-(2,4-Dichlorophenyl)-2-{[(4-hydroxy-3-methoxyphenyl)methylidene]hydrazinylidene}-1,3-thiazolidin-4-one], the melting point is 140 to 142 °C. Still for that read-out and setting: to `O=C1CSC(=NN=Cc2ccccc2O)N1c1ccc(Cl)cc1` [Compound 57, 3-(4-Chlorophenyl)-2-{[(2-hydroxyphenyl)methylidene]hydrazinylidene}-1,3-thiazolidin-4-one] belongs 238 to 240 °C. Same read-out and setting: in the case of `COc1cc(C=NN=C2SCC(=O)N2c2ccc(F)cc2)ccc1O` [Compound 70, 3-(4-Fluorophenyl)-2-{[(4-hydroxy-3-methoxyphenyl)methylidene]hydrazinylidene}-1,3-thiazolidin-4-one] it was 236 to 238 °C; in that of `O=C1CSC(=NN=Cc2ccc(O)c(Br)c2)N1c1ccc(Cl)cc1` [Compound 63, 2-{[(3-Bromo-4-hydroxyphenyl)methylidene]hydrazinylidene}-3-(4-chlorophenyl)-1,3-thiazolidin-4-one], 235 to 236 °C; in that of `COc1cc(C=NN=C2SCC(=O)N2c2ccc(Cl)cc2)ccc1O` [Compound 60, 3-(4-Chlorophenyl)-2-{[(4-hydroxy-3-methoxyphenyl)methylidene]hydrazinylidene}-1,3-thiazolidin-4-one], 226 to 228 °C.

Regarding `CCOc1cc(C=NN=C2SCC(=O)N2c2ccc(F)cc2)ccc1O` [Compound 71, 2-{[(3-Ethoxy-4-hydroxyphenyl)methylidene]hydrazinylidene}-3-(4-fluorophenyl)-1,3-thiazolidin-4-one], the melting point is 240 to 242 °C. The molecule `O=C1CSC(=NN=Cc2ccc(O)c(Br)c2)N1c1ccc(F)cc1` [Compound 73, 2-{[(3-Bromo-4-hydroxyphenyl)methylidene]hydrazinylidene}-3-(4-fluorophenyl)-1,3-thiazolidin-4-one] displayed a melting point of 224 to 226 °C.

For the molecule `O=C1CSC(=NN=Cc2ccccc2O)N1c1cccc(Cl)c1` [Compound 52, 3-(3-Chlorophenyl)-2-{[(2-hydroxyphenyl)methylidene]hydrazinylidene}-1,3-thiazolidin-4-one], the melting point fell in the range of 194 to 196 °C.

`O=C1CSC(=NN=Cc2ccccc2O)N1c1ccccc1Cl` [Compound 48, 3-(2-Chlorophenyl)-2-{[(2-hydroxyphenyl)methylidene]hydrazinylidene}-1,3-thiazolidin-4-one] displayed a melting point of 168 to 170 °C.
